# Paper PMC4126345, “Large-scale filament formation inhibits the activity of CTP synthetase” (eLife, 2014)
# Experiments:
# [1] = target: T1, CTP synthetase (CtpS) (Escherichia coli, UniProt P0A7E5); test: CTP production (transmittance at […] nm) and light scattering of purified CtpS with DON; format: biochemical
# T1 construct: gene pyrG; full-length
# [2] = target: T1, CTP synthetase (CtpS); test: purified enzyme turnover to CTP; UTP with ATP depolymerizes and reactivates CtpS (light scattering and activity); format: biochemical
# [3] = target: T1, CTP synthetase (CtpS); test: purified enzyme turnover; ATP with UTP depolymerizes and reactivates CtpS (light scattering and activity); format: biochemical
# [4] = target: T1, CTP synthetase (CtpS); test: cryo-EM difference density in the CtpS filament ([…] Å); format: binding
# [5] = target: T2, CTP synthetase (CtpS E277R) (Escherichia coli, UniProt P0A7E5, E277R); test: CTP inhibition of CTP synthesis by purified enzyme (absorbance at […] nm), […] enzyme; format: biochemical
# T2 construct: gene pyrG; full-length, 6XHis tag not cleaved
# T2 sequence (P0A7E5 2-545 E277R): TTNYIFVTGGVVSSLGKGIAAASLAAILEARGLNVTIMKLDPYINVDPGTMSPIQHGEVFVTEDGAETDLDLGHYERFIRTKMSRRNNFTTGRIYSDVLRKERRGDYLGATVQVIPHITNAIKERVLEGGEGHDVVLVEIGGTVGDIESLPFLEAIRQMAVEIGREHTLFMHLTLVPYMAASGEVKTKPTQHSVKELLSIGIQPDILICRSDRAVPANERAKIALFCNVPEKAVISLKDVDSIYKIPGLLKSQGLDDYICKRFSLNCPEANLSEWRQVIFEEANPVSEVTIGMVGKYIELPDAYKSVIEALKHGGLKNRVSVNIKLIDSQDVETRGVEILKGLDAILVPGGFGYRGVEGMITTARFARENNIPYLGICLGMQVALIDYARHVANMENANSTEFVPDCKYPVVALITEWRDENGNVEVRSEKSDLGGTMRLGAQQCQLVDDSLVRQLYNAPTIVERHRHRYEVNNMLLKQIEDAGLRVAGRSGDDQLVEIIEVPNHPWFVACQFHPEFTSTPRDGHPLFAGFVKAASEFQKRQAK
# [6] = target: T1, CTP synthetase (CtpS); test: CTP production by purified enzyme initiated by glutamine; format: biochemical
# T1 sequence (P0A7E5 2-545): as the sequence (P0A7E5 2-545 E277R) above, with R276E counted along it
smiles,measurement,setting,value
[N-]=[N+]=CC(=O)CC[C@H](N)C(=O)O [6-Diazo-5-oxo-L-norleucine],CTP production (transmittance at 291 nm) and light scattering of purified CtpS w,[1],"When added to activity buffer, DON abolishes both CTP production and CtpS polymerization"
O=c1ccn([C@@H]2O[C@H](CO[P@@](=O)(O)O[P@@](=O)(O)OP(=O)(O)O)[C@@H](O)[C@H]2O)c(=O)[nH]1 [UTP],purified enzyme turnover to CTP; UTP with ATP depolymerizes and reactivates CtpS,[2],"Upon addition of these substrate nucleotides, we observed a sharp decrease in light scattering"
Nc1ncnc2c1ncn2[C@@H]1O[C@H](COP(=O)(O)OP(=O)(O)OP(=O)(O)O)[C@@H](O)[C@H]1O [ATP],purified enzyme turnover; ATP with UTP depolymerizes and reactivates CtpS (light),[3],Addition of ATP and UTP depolymerized the sample.
Nc1ncnc2c1ncn2[C@@H]1O[C@H](COP(=O)(O)OP(=O)(O)O)[C@@H](O)[C@H]1O [ADP],cryo-EM difference density in the CtpS filament (8.4 Å),[4],Similarly strong density is found in the difference map in the positions of bound ADP.
Nc1ccn([C@@H]2O[C@H](COP(=O)(O)OP(=O)(O)OP(=O)(O)O)[C@@H](O)[C@H]2O)c(=O)n1 [CTP],IC50,[5],833 µM
NC(=O)CC[C@H](N)C(=O)O [glutamine],CTP production by purified enzyme initiated by glutamine,[6],CTP production was then initiated by the addition of glutamine to form a complete activity buffer.
